Counter-ions that a name gives are not always drawn.
Tested on: patients with schizophrenia in the acute exacerbation phase
Assay: First stage phase II clinical trial: extrapyramidal symptom rating scales (AIMS, BAS, SAS)
Type: in vivo, human
Details: for SAS (parkinsonism) score change, Average (SD) / BAS Global score (akathisia) change, Average (SD) / AIMS (dyskinesia) score change, Average (SD): n = 44-47
Protocol: According to the procedures as shown in Table 1 as described below, the placebo-controlled double blind experiment was done on 149 patients with schizophrenia in the acute exacerbation phase at 15 facilities in USA. The efficacy and safeness were studied when SM-13496 at a dose of 40 mg or 120 mg, or a placebo was orally administered once a day for 6 weeks after placebo washout.
As is shown in Table 7, among the adverse events, the main side effects, a relationship of which to the SM-13496 cannot be denied, was suppression, nausea, akathisia, free-floating vertigo (excluding rotatory vertigo), sleepiness, headache. The occurrence of dystonic reaction was low (less than 4%) in the SM-13496-treated groups.

`O=C1[C@@H]2[C@@H]3CC[C@@H](C3)[C@@H]2C(=O)N1C[C@@H]1CCCC[C@H]1CN1CCN(c2nsc3ccccc23)CC1` [SM-13496, (1R,2S,3R,4S)-N-[(1R,2R)-2-[4-(1,2-benzoisothiazol-3-yl)-1-piperazinyl-methyl]-1-cyclohexylmethyl]-2,3-bicyclo[2.2.1]heptanedicarboximide hydrochloride] was tested, and the “SAS (parkinsonism) score change, Average (SD)” value (40 mg orally once a day for 6 weeks, p 0.588 vs placebo) was 0.1 (1.08), the “BAS Global score (akathisia) change, Average (SD)” value (40 mg orally once a day for 6 weeks, p 0.687 vs placebo) was 0.1 (1.04) and the “AIMS (dyskinesia) score change, Average (SD)” value (40 mg orally once a day for 6 weeks, p 0.978 vs placebo) was 0.7 (2.88). For the same molecule, the “Changes in AIMS, BAS, SAS score between the treated groups” value (40 mg, 120 mg and placebo groups) was “no significant difference”, the “BAS Global score (akathisia) change, Average (SD)” value (120 mg orally once a day for 6 weeks, p 0.352 vs placebo) was 0.4 (0.94) and the “AIMS (dyskinesia) score change, Average (SD)” value (120 mg orally once a day for 6 weeks, p 0.467 vs placebo) was 0.2 (2.21). For the same molecule, the “SAS (parkinsonism) score change, Average (SD)” value (120 mg orally once a day for 6 weeks, p 0.808 vs placebo) was 0.1 (1.11) and the “Ratio of the patients requiring benztropine” value (SM-13496-treated groups) was 24%.

Reference: patent US20180051017A1, “AGENT FOR TREATMENT OF SCHIZOPHRENIA” (Sumitomo Dainippon Pharma Co., Ltd., priority 2002, published 2018)
